Results as given in patent US5814646A, “Inhibitors of amyloid beta-protein production” (Eli Lilly and Company, priority 1995, dated 1998).

system: Aβ production in 293 751 SWE and CHO 751 SWE cells (transfected with APP-751 Swedish mutation); assay: Aβ production inhibition activity in cells (Aβ ELISA of conditioned media, normalized for cytotoxicity by MTT); type: cell-based; details: 5 μg/ml
Protocol: Two cell lines (human kidney cell line 293 and Chinese hamster ovary cell line CHO) were stably transfected with the gene for APP-751 containing the double mutation Lys651 -Met652 to Asn651 -Leu652 (APP-751 numbering) commonly called the Swedish mutation using the method described in Citron et al., (1992) Nature 360:672-674. The transfected cell lines were designated as 293 751 SWE and CHO 751 SWE, and were plated in Corning 96 well plates at 2.5×10^4 or 1×10^4 cells per well respectively in Dulbecco's minimal essential media plus 10% fetal bovine serum. Following overnight incubation at 37° C. in an incubator equilibrated with 10% carbon dioxide (CO2), the media were removed and replaced with 200 μL per well of media containing a test compound. After a two hour pretreatment period, the media were again removed and replaced with fresh media containing the test compound and the cells were incubated for an additional two hours.
Test compound stocks were prepared in DMSO such that at the final concentration used in the treatment, the concentration of DMSO did no exceed 0.5%. After treatment, plates were centrifuged in a Beckman GPR at 1200 rpm for five minutes at room temperature to pellet cellular debris from the conditioned media. From each well, 100 μL of conditioned media were transferred into an ELISA plate precoated with antibody 266 against βAP-13-28 (Seubert et al., supra.) and stored at 4° C. overnight. An ELISA assay employing labeled antibody 6C6 (against βAP-1-16) was run the next day to measure the amount of Aβ produced.
Cytotoxic effects of the test compounds were measured by a modification of the method of Hansen et al., (1989) J. Immun. Meth. 119:203-210. To the cells remaining in the tissue culture plate, was added 25 μL of a 3, (4,5-dimethylthiazol-2-yl)2,5-diphenyltetrazolium bromide (MTT) stock solution (5 mg/mL) to a final concentration of […]. Cells were incubated at 37° C. for one hour, and cellular activity was stopped by the addition of an equal volume of MTT lysis buffer (20% w/v sodium dodecylsulfate in 50% DMF, pH 4.7). Complete extraction was achieved by overnight shaking at room temperature. The difference in the OD562 nm and the OD650 nm was measured in a Molecular Devices UVmax microplate reader as an indicator of the cellular viability.
The results of the Aβ ELISA were fit to a standard curve and expressed as ng/mL Aβ peptide. In order to normalize for cytotoxicity, these Aβ results were divided by the MTT results and expressed as a percentage of the results from a drug -free control.
The test compounds were assayed for Aβ production inhibition activity in cells at […] using the test. The results presented in Table 1 are the mean and standard deviation of at least six replicate assays. IC50 means the concentration of test compound in micromoles/liter required to inhibit Aβ production by 50%.

In order of falling inhibition at 5 µg/mL:
1. CC(c1cccc(NC(=O)c2ccc(C(C)(C)C)cc2)c1)N(O)C(=S)NCc1ccccc1 (stereo not drawn) [Compound 99]  43%
2. Cc1cccc(CNC(=S)N(O)Cc2cccc(OCc3ccc(C(C)(C)C)cc3)c2)c1 [Compound 48]  29%
3. CCCCc1ccc(COc2ccc(CN(O)C(=S)NCc3ccccc3)cc2)cc1 [Compound 62]  17%

same assay, conditions: 10 μg/ml, % of drug-free control, normalized to MTT

In order of falling inhibition at 10 µg/mL:
1. CC(c1cccc(Oc2ccc(C(C)(C)C)cc2)c1)N(O)C(=S)NCc1ccc(Cl)c(Cl)c1 (stereo not drawn) [Compound 2]  77%
2. CC(C)(C)c1ccccc1Oc1ccc(NC(=S)Nc2ccc(Cl)c(C(F)(F)F)c2)cc1 [Compound 174]  66%
3. CC(C)(C)c1ccc(Oc2ccccc2NC(=S)NCc2ccccc2)cc1 [Compound 181]  52%
4. CSc1ccc(NC(=O)Nc2cc(Cl)c(Cl)cc2C)cc1 [Compound 160]  48%
5. O=C(Nc1ccc(Cl)cc1)Nc1nncs1 [Compound 256]  42%
6. COc1ccc(NC(=O)Nc2ccc(Cl)c(Cl)c2)c(OC)c1 [Compound 144]  41%
7. COc1ccc(CNC(=S)N(O)C(C)c2cccc(Oc3ccc(C(C)(C)C)cc3)c2)cc1OC (stereo not drawn) [Compound 11]  31%
8. CCCc1cc(C(C)(C)C)ccc1Oc1ccc(NC(=S)NCc2cccc(C)c2)cc1 [Compound 194]  31%
9. Cc1cccc(CNC(=S)N(O)Cc2ccc(-c3ccc(C(C)(C)C)cc3)cc2)c1 [Compound 82]  30%
10. CCCCOc1ccc(COc2cccc(CN(O)C(=S)NCc3ccccc3)c2)cc1 [Compound 66]  21%
11. ON(Cc1ccc(OCc2c(Cl)cccc2Cl)cc1)C(=S)NCc1ccccc1 [Compound 64]  18%
12. Cc1cccc(CNC(=S)N(O)Cc2ccc(-c3ccccc3)cc2)c1 [Compound 79]  15%
13. ON(Cc1ccc(-c2ccccc2)cc1)C(=S)NCc1ccc(Cl)c(Cl)c1 [Compound 76]  13%
14. CNC(=O)N(C)c1nnc(Br)s1 [Compound 254]  11%
15. O=C(Nc1ccc(Cl)c(Cl)c1)Nc1ncccn1 [Compound 138]  7%
16. CSc1ccc(NC(=O)Nc2ccc(Cl)cc2Cl)cc1 [Compound 159]  4%
17. CCCc1c(NC(=S)Nc2ccc(C(C)(C)C)cc2)ccc(C(=O)c2ccccc2)c1O [Compound 203]  2%
18. CNC(=O)Nc1nnc(Br)s1 [Compound 253]  2%
19. CCCCCCNC(=S)N(O)C(CCCCCC)c1cccc(Oc2ccc(C(C)(C)C)cc2)c1 (stereo not drawn) [Compound 37]  0%

In order of rising “Aβ Production Inhibition Activity, % inhibition at 10 μg/ml” value:
1. O=C(Nc1ccc(Cl)c(Cl)c1)c1ncco1 [Compound 241]  -8%
2. O=C(Nc1ccc(Cl)c(Cl)c1)c1ccccn1 [Compound 227]  32%

same assay, conditions: 2 h pretreatment + 2 h incubation

In order of falling IC50:
1. CCCCCCNC(=S)N(O)Cc1ccc(COc2ccc(C(C)(C)CC)cc2)cc1 [Compound 96]  24.8 µM
2. CC(C)(C)c1ccc(Oc2ccc(NC(=S)NCc3ccncc3)cc2)cc1 [Compound 122]  23.5 µM
3. CCCc1cc(C(C)(C)C)ccc1Oc1cccc(CN(O)C(=O)Nc2ccc(Cl)c(C(F)(F)F)c2)c1 [Compound 103]  20 µM
4. CC(C)(C)c1ccc(Oc2ccc(NC(=S)Nc3ccccc3)cc2)cc1 [Compound 114]  18.2 µM
5. O=C(Nc1ccc(Cl)c(Cl)c1)Nc1nc2ccccc2[nH]1 [Compound 140]  17.4 µM
6. Cc1ccc(CNC(=S)N(O)C(C)c2cccc(Oc3ccc(C(C)(C)C)cc3)c2)cc1 (stereo not drawn) [Compound 7]  15.6 µM
7. Cc1cc2nc(NC(=O)Nc3ccc(Cl)c(Cl)c3)[nH]c2cc1C [Compound 143]  14.9 µM
8. CSc1ccc(NC(=O)Nc2ccc(SC)c(Br)c2)cc1 [Compound 164]  14.4 µM
9. CSc1ccc(NC(=O)Nc2ccc(Cl)c(Cl)c2)cc1 [Compound 149]  13.8 µM
10. CC(C)(C)c1cccc(Oc2cccc(CN(O)C(=S)NCc3ccccc3)c2)c1 [Compound 187]  12.1 µM
11. CC(c1cccc(Oc2ccc(C(C)(C)C)cc2)c1)N(O)C(=S)NCc1ccc(Cl)cc1 (stereo not drawn) [Compound 3]  11.7 µM
12. CC(C)(C)c1ccc(Oc2ccccc2CN(O)C(=S)NCc2ccccc2)cc1 [Compound 180]  11.6 µM
13. CCCc1cc(C(C)(C)C)ccc1Oc1ccc(NC(=S)Nc2cccc(C(F)(F)F)c2)cc1 [Compound 195]  11 µM
14. CCC(c1cccc(Oc2ccc(C(C)(C)C)cc2)c1)N(O)C(=S)Nc1ccc(Cl)c(C(F)(F)F)c1 (stereo not drawn) [Compound 23]  11 µM
15. CC(C)(C)c1ccc(Oc2ccccc2N(O)C(=S)Nc2ccc(Cl)c(C(F)(F)F)c2)cc1 [Compound 171]  10.8 µM
16. O=C(Nc1ccc(Cl)c(Cl)c1)Nc1nc2ccccc2s1 [Compound 137]  10.3 µM
17. CC(C)(C)c1ccc(Oc2ccc(NC(=S)NCc3nnc(C(F)(F)F)s3)cc2)cc1 [Compound 134]  10.2 µM
18. CC(C)(C)c1ccc(Oc2ccc(CSC(=S)NCc3ccccc3)cc2)cc1 [Compound 198]  10 µM
19. CCCC(c1cccc(Oc2ccc(C(C)(C)C)cc2)c1)N(O)C(=S)NCc1ccc(Cl)c(Cl)c1 (stereo not drawn) [Compound 31]  10 µM
20. CCC(C)(C)c1ccc(OCc2ccc(CN(O)C(=S)NCc3ccccc3)cc2)cc1 [Compound 97]  10 µM
21. Cc1nnc(NC(=O)Nc2ccc(F)c(Cl)c2)s1 [Compound 250, 1-(5-methyl-1,3,4-thiadiazol-2-yl)-3-(4-fluoro-3-chlorophenyl)urea]  9.8 µM
22. CC(C)(C)c1ccc(Oc2ccc(NC(=S)NCc3cccc(Cl)c3)cc2)cc1 [Compound 105]  9.4 µM
23. CC(C)(C)c1ccccc1Oc1ccc(NC(=S)NCc2ccccc2)cc1 [Compound 188]  9.4 µM
24. CC(C)(C)c1ccc(Oc2cccc(CNC(=S)NCc3ccccc3)c2)cc1 [Compound 40]  9.1 µM
25. CCCC(c1cccc(Oc2ccc(C(C)(C)C)cc2)c1)N(O)C(=S)NCc1cccc(Cl)c1 (stereo not drawn) [Compound 30]  9.1 µM
26. CCCC(c1cccc(Oc2ccc(C(C)(C)C)cc2)c1)N(O)C(=S)NCc1cccc(C)c1 (stereo not drawn) [Compound 32]  9 µM
27. CC(C)(C)c1ccc(Oc2ccc(NC(=S)NCc3ccc(F)cc3C(F)(F)F)cc2)cc1 [Compound 132]  8 µM
28. CC(C)(C)c1ccc(Oc2ccc(NC(=S)NCc3cccc(Br)c3)cc2)cc1 [Compound 107]  7.2 µM
29. CC(C)(C)c1ccc(COc2cccc(CN(O)C(=S)NCc3ccccc3)c2)cc1 [Compound 49]  6.7 µM
30. S=C(Nc1ccc(Cl)cc1)Nc1ccc(Cl)c(Cl)c1 [Compound 139]  6.6 µM
31. CCCCCCNC(=S)N(O)Cc1cccc(Oc2ccc(C(C)(C)C)cc2CCC)c1 [Compound 102]  6.1 µM
32. CC(C)(C)c1noc(C(=O)Nc2ccc(Cl)c(Cl)c2)n1 [Compound 246]  5.8 µM
33. CC(c1cccc(Oc2ccc(C(C)(C)C)cc2)c1)N(O)C(=S)NCc1ccc(Cl)cc1Cl (stereo not drawn) [Compound 17]  5.7 µM
34. Cc1nnc(NC(=O)Nc2ccc(Cl)c(Cl)c2)s1 [Compound 234, 1-(5-methyl-1,3,4-thiadiazol-2-yl)-3-(3,4-dichlorophenyl)urea]  5 µM
35. FC(F)(F)c1cccc(NC(=S)Nc2ccc(Cl)c(Cl)c2)c1 [Compound 147]  4.7 µM
36. CC(C)(C)c1cccc(Oc2ccc(NC(=S)Nc3ccc(Cl)c(C(F)(F)F)c3)cc2)c1 [Compound 169]  4.6 µM
37. CC(C)(C)c1ccc(Oc2ccc(NC(=S)NCc3ccc(F)c(F)c3)cc2)cc1 [Compound 129]  4.5 µM
38. O=C(Nc1ccc(Cl)c(Cl)c1)Nc1nnc(C(F)(F)F)s1 [Compound 236, 1-(5-trifluoromethyl-1,3,4-thiadiazol-2-yl)-3-(3,4-dichlorophenyl)urea]  4.2 µM
39. CC(C)(C)c1ccc(Oc2cccc(CN(O)C(=S)NCc3ccc(Cl)c(Cl)c3)c2)cc1 [Compound 28]  4.2 µM
40. CC(C)(C)c1ccc(Oc2cccc(CNC(=S)NCc3ccc(Cl)c(C(F)(F)F)c3)c2)cc1 [Compound 41]  4 µM
41. CCCc1c(CSC(=S)NCc2ccccc2)ccc(C(C)=O)c1O [Compound 199]  2 µM
42. O=C(Nc1ccc(Cl)c(Cl)c1)Nc1nnc(Br)s1 [Compound 240, 1-(5-bromo-1,3,4-thiadiazol-2-yl)-3-(3,4-dichlorophenyl)urea]  1.8 µM
